Laboratory results as given in patent publication US7101888B2, “Oral liquid tolterodine composition” (Pharmacia & UpJohn Company, priority 2002, dated 2006).

Tests used:
[1] = Chemical stability of tolterodine in aqueous media; format: physicochemical
[2] = system: muscarinic receptors of the salivary gland; conditions: compared with oxybutynin; cited from earlier work

## Cc1ccc(O)c([C@H](CCN(C(C)C)C(C)C)c2ccccc2)c1 [tolterodine, (R)-N,N-diisopropyl-3-(2-hydroxy-5-methylphenyl)-3-phenylpropanamine]
[1]; alkaline pH
  stability in aqueous solutions of tolterodine salts: unstable
[1]; aqueous solutions of tolterodine salts
  pH of optimum stability: about 4
[1]; neutral to alkaline pH levels
  chemical stability in aqueous media: chemical instability
[2]
  affinity for the muscarinic receptors of the salivary gland relative to oxybutynin: about eight times lower
